Test results reported in paper PMC10222279, “Detection of Acetaminophen in Groundwater by Laccase-Based Amperometric Biosensors Using MoS2 Modified Carbon Paper Electrodes” (Sensors (Basel, Switzerland), 2023).

Tested on: T1, TvL
T1 construct: gene LCC2
Details: read-out: KMapp / Free; free enzyme; assay as for activity: 50 mM citric/phosphate buffer pH 4, 420 nm; unit not in table grid, µM
Excerpt: ABTS oxidation kinetics, non-linear Michaelis-Menten fit on TvL

Km: 42.1 ± 3.14 µM
Structure (SMILES): CCn1c(=NN=c2sc3cc(S(=O)(=O)O)ccc3n2CC)sc2cc(S(=O)(=O)O)ccc21 [ABTS, 2,2′-azino-bis(3-ethylbenzthiazoline-6-sulphonic acid)]
